In ChEMBL document CHEMBL5360655, “Design, Synthesis, and Biological Evaluation of Novel P2X7 Receptor Antagonists for the Treatment of Septic Acute Kidney Injury” (J Med Chem, 2023):
Active and inactive are the calls of the source. The rule behind the calls is not given here.

Columns and labels:
[1] = biological target: T1, P2X purinoceptor 7 (Homo sapiens) (UniProt Q99572); assay: Antagonist activity at human P2X7 receptor expressed in HEK293 cells assessed as inhibition of ATP-induced receptor pore formation at 10 uM by propidium iodide dye uptake based fluorescence analysis; type: cell-based
T1 sequence (whole entry): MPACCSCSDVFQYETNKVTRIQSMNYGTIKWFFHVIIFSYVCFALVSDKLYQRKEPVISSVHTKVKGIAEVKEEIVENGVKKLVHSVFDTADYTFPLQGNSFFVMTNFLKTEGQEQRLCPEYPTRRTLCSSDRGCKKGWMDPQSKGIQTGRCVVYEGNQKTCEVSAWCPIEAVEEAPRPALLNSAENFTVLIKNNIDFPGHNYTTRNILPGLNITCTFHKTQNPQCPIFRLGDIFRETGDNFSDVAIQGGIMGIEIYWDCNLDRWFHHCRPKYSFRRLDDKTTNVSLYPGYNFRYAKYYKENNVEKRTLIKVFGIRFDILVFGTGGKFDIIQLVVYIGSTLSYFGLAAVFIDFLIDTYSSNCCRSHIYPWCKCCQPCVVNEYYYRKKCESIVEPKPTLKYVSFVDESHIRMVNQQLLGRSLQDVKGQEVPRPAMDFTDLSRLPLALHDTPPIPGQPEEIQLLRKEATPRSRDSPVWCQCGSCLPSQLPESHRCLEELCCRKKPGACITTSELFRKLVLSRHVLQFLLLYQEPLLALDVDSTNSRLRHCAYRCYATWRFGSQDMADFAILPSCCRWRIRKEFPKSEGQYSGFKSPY

[2] = biological target: T2, P2X purinoceptor 7 (Mus musculus) (UniProt Q9Z1M0); assay: Antagonist activity at mouse P2X7 receptor expressed in HEK293 cells assessed as inhibition of ATP-induced receptor pore formation at 10 uM by propidium iodide dye uptake based fluorescence analysis; type: cell-based
T2 sequence (whole entry): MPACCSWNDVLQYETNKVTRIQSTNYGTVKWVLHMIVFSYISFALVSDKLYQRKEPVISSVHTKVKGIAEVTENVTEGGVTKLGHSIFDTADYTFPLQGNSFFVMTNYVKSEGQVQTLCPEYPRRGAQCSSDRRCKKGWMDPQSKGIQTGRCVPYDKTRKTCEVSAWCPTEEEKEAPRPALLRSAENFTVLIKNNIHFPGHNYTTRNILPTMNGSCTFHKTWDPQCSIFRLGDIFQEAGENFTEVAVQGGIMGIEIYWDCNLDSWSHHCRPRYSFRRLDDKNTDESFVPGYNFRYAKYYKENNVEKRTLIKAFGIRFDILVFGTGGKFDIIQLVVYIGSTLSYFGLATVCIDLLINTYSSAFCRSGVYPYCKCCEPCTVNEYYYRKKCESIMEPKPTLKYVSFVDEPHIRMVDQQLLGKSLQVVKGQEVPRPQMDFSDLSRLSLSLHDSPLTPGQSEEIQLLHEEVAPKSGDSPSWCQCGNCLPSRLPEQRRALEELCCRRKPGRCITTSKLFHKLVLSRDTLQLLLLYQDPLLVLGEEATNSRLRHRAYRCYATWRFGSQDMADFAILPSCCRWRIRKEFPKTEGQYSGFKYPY

[3] = biological target: T1, P2X purinoceptor 7 (Homo sapiens); assay: Antagonist activity at human P2X7 receptor expressed in HEK293 cells assessed as inhibition of ATP-induced receptor pore formation at 1 uM by propidium iodide dye uptake based fluorescence analysis; type: cell-based
[4] = biological target: T2, P2X purinoceptor 7 (Mus musculus); assay: Antagonist activity at mouse P2X7 receptor expressed in HEK293 cells assessed as inhibition of ATP-induced receptor pore formation at 1 uM by propidium iodide dye uptake based fluorescence analysis; type: cell-based; conditions: filed as antagonist
[5] = biological target: T1, P2X purinoceptor 7 (Homo sapiens); assay: Antagonist activity at human P2X7 receptor expressed in HEK293 cells assessed as inhibition of ATP-induced receptor pore formation at 200 nM by propidium iodide dye uptake based fluorescence analysis; type: cell-based
[6] = biological target: T2, P2X purinoceptor 7 (Mus musculus); assay: Antagonist activity at mouse P2X7 receptor expressed in HEK293 cells assessed as inhibition of ATP-induced receptor pore formation at 200 nM by propidium iodide dye uptake based fluorescence analysis; type: cell-based
P2X purinoceptor 7 [7] = biological target: T3, P2X purinoceptor 7 (Mus musculus, UniProt Q9Z1M0); assay: Antagonist activity at mouse P2X7 receptor expressed in HEK293 cells assessed as inhibition of ATP-induced receptor pore formation by propidium iodide dye uptake based fluorescence analysis; type: cell-based
T3 sequence (Q9Z1M0 whole entry): T2 sequence (whole entry)

P2X purinoceptor 7 [8] = biological target: T4, P2X purinoceptor 7 (Homo sapiens, UniProt Q99572); assay: Antagonist activity at human P2X7 receptor expressed in HEK293 cells assessed as inhibition of ATP-induced receptor pore formation by propidium iodide dye uptake based fluorescence analysis; type: cell-based
T4 sequence (Q99572 whole entry): T1 sequence (whole entry)

[9] = Intrinsic clearance in human liver microsomes; type: ADME, Microsome; conditions: read-out: CLH
[10] = Half life in human liver microsomes; type: ADME, Microsome
[11] = Intrinsic clearance in mouse liver microsomes; type: ADME, Microsome; conditions: read-out: CLH
[12] = Half life in mouse liver microsomes; type: ADME, Microsome
P2X purinoceptor 7 [13] = biological target: T4, P2X purinoceptor 7; assay: Antagonist activity at P2X7 receptor in human THP-1 cells assessed as inhibition of ATP-induced IL-1beta secretion pretreated with LPS for 3 hrs followed by incubation with compound for 40 mins followed by treatment with ATP for 1 hr by ELISA; type: cell-based
[14] = AUC(0 to t) in BALB/c mouse at 10 mg/kg, iv measured for 24 hrs by LC-MS/MS analysis; type: ADME, organism-based; design: time 24 hrs, dose 10 mg/kg, route iv; conditions: in vivo
[15] = AUC(0 to t) in BALB/c mouse at 10 mg/kg, po measured for 24 hrs by LC-MS/MS analysis; type: ADME, organism-based; design: time 24 hrs, dose 10 mg/kg, route po; conditions: in vivo
[16] = Clearance in BALB/c mouse at 10 mg/kg, iv measured for 24 hrs by LC-MS/MS analysis; type: ADME, organism-based; conditions: in vivo
[17] = Clearance in BALB/c mouse at 10 mg/kg, po measured for 24 hrs by LC-MS/MS analysis; type: ADME, organism-based; conditions: in vivo
[18] = Cmax in BALB/c mouse at 10 mg/kg, iv measured for 24 hrs by LC-MS/MS analysis; type: ADME, organism-based; design: time 24 hrs, dose 10 mg/kg, route iv; conditions: in vivo
[19] = Cmax in BALB/c mouse at 10 mg/kg, po measured for 24 hrs by LC-MS/MS analysis; type: ADME, organism-based; design: time 24 hrs, dose 10 mg/kg, route po; conditions: in vivo
[20] = Half life in BALB/c mouse at 10 mg/kg, iv measured for 24 hrs by LC-MS/MS analysis; type: ADME, organism-based; conditions: in vivo
[21] = Half life in BALB/c mouse at 10 mg/kg, po measured for 24 hrs by LC-MS/MS analysis; type: ADME, organism-based; conditions: in vivo
[22] = Tmax in BALB/c mouse at 10 mg/kg, iv measured for 24 hrs by LC-MS/MS analysis; type: ADME, organism-based; conditions: in vivo
[23] = Tmax in BALB/c mouse at 10 mg/kg, po measured for 24 hrs by LC-MS/MS analysis; type: ADME, organism-based; conditions: in vivo
[24] = Oral bioavailability in BALB/c mouse at 10 mg/kg measured for 24 hrs by LC-MS/MS analysis; type: ADME, organism-based; conditions: in vivo
Mus musculus [25] = assay: Reno-protective activity against LPS-induced acute kidney injury C57BL/6J mouse model assessed as decrease in serum […] level at 10 mg/kg, ip administered twice at 30 mins prior to LPS challenge and 8 hrs post-LPS challenge and measured at 16 hrs post-LPS challenge; type: functional, organism-based; conditions: time 16.5 hrs
Mus musculus [26] = assay: Reno-protective activity against LPS-induced acute kidney injury C57BL/6J mouse model assessed as decrease in BUN level at 10 mg/kg, ip administered twice at 30 mins prior to LPS challenge and 8 hrs post-LPS challenge and measured at 16 hrs post-LPS challenge; type: functional, organism-based; conditions: time 16.5 hrs

| inhibition ([1]; filed as antagonist) [%] | inhibition ([2]; filed as antagonist) [%] | inhibition ([3]; filed as antagonist) [%] | inhibition [4] [%] | inhibition [5] | inhibition ([6]; filed as antagonist) [%] | IC50 (P2X purinoceptor 7 [7]) [nM] | IC50 (P2X purinoceptor 7 [8]) [nM] | CLint scaled [9] [mL/min/kg] | half-life [10] [min] | CLint scaled [11] [mL/min/kg] | half-life [12] [min] | SMILES | also measured |
| --- | --- | --- | --- | --- | --- | --- | --- | --- | --- | --- | --- | --- | --- |
| > 50 | > 50 | 41.9 | 49.6 | inactive |  |  |  |  |  |  |  | CS(=O)(=O)c1cccc(-c2ccc(Cl)c(C(=O)NCc3cn(-c4cc(Cl)ccn4)nn3)c2)c1 | inhibition [6]: inactive |
| > 50 | > 50 | 40 | 71 | 22.9% | 66 | 99.1 |  |  |  |  |  | CS(=O)(=O)c1ccc(-c2ccc(Cl)c(C(=O)NCc3cn(-c4cc(Cl)ccn4)nn3)c2)cc1 |  |
| 59.3 |  |  |  |  |  |  |  |  |  |  |  | O=C(NCc1cn(-c2cc(Cl)ccn2)nn1)c1cc(Br)ccc1Cl | inhibition [2]: 10% |
|  |  | 76.9 | 74.7 | 30.8% |  | 1860 | 91.4 | 30.6 | 56.8 | 65.4 | 83.5 | CS(=O)(=O)Nc1cccc(-c2ccc(Cl)c(C(=O)NCc3cn(-c4cc(Cl)ccn4)nn3)c2)c1 | inhibition [6]: 32.8% |
|  |  | 78.8 | 112 |  | 82.4 | 58.5 | 436 | 24.1 | 72.2 | 215 | 25.4 | O=C(NCc1cn(-c2cc(Cl)ccn2)nn1)c1cnc(-c2cccc(NS(=O)(=O)N3CCOCC3)c2)s1 | inhibition ([5]; filed as antagonist): 46.5% |
| 53.5 |  |  |  |  |  |  |  |  |  |  |  | O=C(NCc1cn(-c2cc(Cl)ccn2)nn1)c1ccc(C(F)(F)F)c(Br)c1 | inhibition [2]: 22.5% |
|  |  | 52.3 | 89.8 | 26.6% | 71.6 | 93.3 | 340 | < 12 | > 120 | < 12 | > 120 | CS(=O)(=O)Nc1ccc(-c2ncc(C(=O)NCc3cn(-c4cc(Cl)ccn4)nn3)s2)cc1 |  |
|  |  | 56.3 | 92.6 | 22.1% | 67.6 | 344 | 659 | 40.4 | 43 | 66.2 | 82.5 | CC(C)S(=O)(=O)c1ccc(-c2ncc(C(=O)NCc3cn(-c4cc(Cl)ccn4)nn3)s2)cc1 |  |

The remaining lines, values behind:

| SMILES | inhibition ([1]; filed as antagonist) [%] | inhibition ([2]; filed as antagonist) [%] | inhibition ([3]; filed as antagonist) [%] | inhibition [4] [%] | inhibition [5] | inhibition ([6]; filed as antagonist) [%] | IC50 (P2X purinoceptor 7 [7]) [nM] | IC50 (P2X purinoceptor 7 [8]) [nM] | CLint scaled [9] [mL/min/kg] | half-life [10] [min] | CLint scaled [11] [mL/min/kg] | half-life [12] [min] | also measured |
| --- | --- | --- | --- | --- | --- | --- | --- | --- | --- | --- | --- | --- | --- |
| O=C(NCc1cn(-c2cc(Cl)ccn2)nn1)c1cccc(C(F)(F)F)c1Cl | 46.5 |  |  |  |  |  |  |  |  |  |  |  | inhibition [2]: 13.2% |
| O=C(NCc1cn(-c2cc(Cl)ccn2)nn1)c1cnc(-c2ccc(NS(=O)(=O)N3CCOCC3)cc2)s1 |  |  | 86.1 | 78.2 |  | 54.3 | 104 | 99.6 | 15.3 | 114 | 154 | 35.4 | inhibition ([5]; filed as antagonist): 55.2% |
| O=C(NCc1cn(-c2cc(Cl)ccn2)nn1)c1cc(-c2cccc3ncccc23)ccc1Cl | > 50 | > 50 |  | 72.4 | 13.6% | 66.7 | 138 |  |  |  |  |  | inhibition [3]: 33.1% |
| O=C(NCc1cn(-c2cc(Cl)ccn2)nn1)c1cnc(-c2cccc(NS(=O)(=O)C3CC3)c2)s1 |  |  | 62.5 | 83.9 |  | 68.3 | 69.9 | 656 | < 12 | > 120 | < 12 | > 120 | inhibition ([5]; filed as antagonist): 40% |
| Cc1cccc(Cl)c1C(=O)NCc1cn(-c2cc(Cl)ccn2)nn1 |  |  |  |  |  |  |  |  |  |  |  |  | inhibition [1]: inactive; inhibition [2]: 34.4% |
| COc1ccc(-c2ccc(Cl)c(C(=O)NCc3cn(-c4cc(Cl)ccn4)nn3)c2)cc1OC |  |  | 59.2 | 51 | 35.7% |  | 1790 | 285 | 17.8 | 97.6 | 216 | 25.3 | inhibition [6]: inactive |
| O=C(NCC1(N2CCN(c3ccccc3)CC2)CCOCC1)c1cccnc1Sc1ccccc1 | 92 | 89 | 95.2 | 92 |  | 87.3 |  |  | 40.9 | 42.5 | 88.2 | 61.9 | inhibition ([5]; filed as antagonist): 93.8%; IC50 (P2X purinoceptor 7 [13]): < 30 nM; AUC(0-t) at 24 h [14]: 310 ng·h/mL; AUC(0-t) at 24 h [15]: 155 ng·h/mL; clearance [16]: 538 mL/min/kg; CL/F [17]: 1080 mL/min/kg; Cmax [18]: 516 ng/mL; Cmax [19]: 270 ng/mL; half-life [20]: 46.2 min; half-life [21]: 48 min; Tmax [22]: 4.8 min; Tmax [23]: 4.8 min; bioavailability [24]: 49.9%; Activity (Mus musculus [25]): Active; Activity (Mus musculus [26]): Active |
| O=C(NCc1cn(-c2cc(Cl)ccn2)nn1)c1c(Cl)cccc1Br |  | 62.3 |  |  |  |  |  |  |  |  |  |  | inhibition [1]: 23.1% |
